For data set [1], the system named is Glomerella Lagenarium (Colletotrichum Lagenarium). Nature of the data set: Glomerella lagenarium (Colletotrichum lagenarium) liquid culture / cucumber / preventative (anthracnose). It is filed as cell-based. Particulars: Colletotrichum orbiculare; 20 ppm in the applied formulation; liquid culture in PDB, 24° C., 3 to 4 days after application; read-out: disease control compared to untreated control (inhibition of growth measured photometrically). Here is the method:
Mycelia fragments or conidia suspensions of a fungus prepared either freshly from liquid cultures of the fungus or from cryogenic storage, are directly mixed into nutrient broth. DMSO solutions of the test compound (max. 10 mg/ml) are diluted with 0.025% Tween20 by a factor of 50 and 10 μl of this solution is pipetted into a microtiter plate (96-well format). The nutrient broth containing the fungal spores/mycelia fragments is then added to give an end concentration of the tested compound. The test plates are incubated in the dark at 24° C. and 96% relative humidity. The inhibition of fungal growth is determined photometrically after 2 to 7 days, depending on the pathosystem, and percent antifungal activity relative to the untreated check is calculated.
Conidia of the fungus from cryogenic storage are directly mixed into nutrient broth (PDB—potato dextrose broth). After placing a (DMSO) solution of test compound into a microtiter plate (96-well format), the nutrient broth containing the fungal spores is added. The test plates are incubated at 24° C. and the inhibition of growth is measured photometrically 3 to 4 days after application.
The following compounds at 20 ppm in the applied formulation give at least 80% disease control in this test when compared to untreated control under the same conditions, which show extensive disease development.

The structures appear in SMILES notation.

Results on ten compounds are retold here after patent US20190284148A1, “MICROBIOCIDAL OXADIAZOLE DERIVATIVES” (SYNGENTA PARTICIPATIONS AG, priority 2016, published 2019).

As to `CC(=O)Nc1ccc(-c2noc(C(F)(F)F)n2)cc1Cl` [Compound 1.1, N-[2-chloro-4-[5-(trifluoromethyl)-1,2,4-oxadiazol-3-yl]phenyl]acetamide], the melting point – broadly, the temperature, or range, at which the solid turns liquid – was 155 to 170 °C. In addition, the inhibition – broadly, the percentage by which the read-out fell short of the control – at 20 ppm in data set [1] was not below 80%. The compound `COCC(=O)Nc1ccc(-c2noc(C(F)(F)F)n2)cc1Cl` [Compound 1.2, N-[2-chloro-4-[5-(trifluoromethyl)-1,2,4-oxadiazol-3-yl]phenyl]-2-methoxy-acetamide] displayed a melting point of 77 to 84 °C. The inhibition at 20 ppm in data set [1] is not below 80%. The compound `CCC(=O)Nc1ccc(-c2noc(C(F)(F)F)n2)cc1C` [Compound 1.4, N-[2-methyl-4-[5-(trifluoromethyl)-1,2,4-oxadiazol-3-yl]phenyl]propanamide] registered a melting point of 178 to 185 °C. In addition, in data set [1], the inhibition at 20 ppm was not below 80%. The corresponding values for `C=CCON(C)C(=O)Nc1ccc(-c2noc(C(F)(F)F)n2)cc1C` [Compound 1.11, 1-allyloxy-1-methyl-3-[2-methyl-4-[5-(trifluoromethyl)-1,2,4-oxadiazol-3-yl]phenyl]urea] are 62 to 66 °C and not below 80%.

Take `CC(C)C(=O)Nc1ccc(-c2noc(C(F)(F)F)n2)cc1F` [Compound 1.14, N-[2-fluoro-4-[5-(trifluoromethyl)-1,2,4-oxadiazol-3-yl]phenyl]-2-methyl-propanamide]: in data set [1], the inhibition at 20 ppm is not below 80%.

In the case of `CCC(C)C(=O)Nc1ccc(-c2noc(C(F)(F)F)n2)cc1F` (centres unmarked) [Compound 1.16, N-[2-fluoro-4-[5-(trifluoromethyl)-1,2,4-oxadiazol-3-yl]phenyl]-2-methyl-butanamide], the inhibition at 20 ppm in data set [1] is not below 80%. Take `COCCC(=O)Nc1ccc(-c2noc(C(F)(F)F)n2)cc1C` [Compound 1.21, 3-methoxy-N-[2-methyl-4-[5-(trifluoromethyl)-1,2,4-oxadiazol-3-yl]phenyl]propanamide]: the inhibition at 20 ppm in data set [1] is not below 80%.

On to `Cc1cc(-c2noc(C(F)(F)F)n2)ccc1NC(=O)C(C)(CO)CCl` (centres unmarked) [Compound 1.23, 2-(chloromethyl)-3-hydroxy-2-methyl-N-[2-methyl-4-[5-(trifluoromethyl)-1,2,4-oxadiazol-3-yl]phenyl]propanamide], for which, in data set [1], the inhibition at 20 ppm is not below 80%. On to `CCC(COC)C(=O)Nc1ccc(-c2noc(C(F)(F)F)n2)cc1C` (centres unmarked) [Compound 1.24, 2-(methoxymethyl)-N-[2-methyl-4-[5-(trifluoromethyl)-1,2,4-oxadiazol-3-yl]phenyl]butanamide], for which the inhibition at 20 ppm in data set [1] was not below 80%. In the case of `COCCCC(=O)Nc1ccc(-c2noc(C(F)(F)F)n2)cc1C` [Compound 1.25, 4-methoxy-N-[2-methyl-4-[5-(trifluoromethyl)-1,2,4-oxadiazol-3-yl]phenyl]butanamide], the inhibition at 20 ppm in data set [1] is not below 80%.
